Where two headings read alike, the source gives them in different places.
What was measured:
[1] = tested on: PWR-1E cells; test: MTT cell proliferation assay, 7 d, PWR-1E; assay type: cell-based; details: Homo sapiens, 168 h, immortalized untransformed prostate cells, 7 d treatment
From the text: (§1) Androgen-dependent (LNCaP), androgen-independent (PC-3) and castration resistant (C4-2B and 22Rv1) human prostate carcinoma cells were procured from American Type Culture Collection, Manassas, VA, USA and maintained in RPMI 1640 media (Gibco-Life Technologies, Grand Island, NY, USA) supplemented with 10% fetal bovine serum and 1% penicillin/streptomycin. […] Immortalized untransformed prostate epithelial cells, PWR1E from American Type Culture Collection were maintained in serum-free Keratinocyte media (Gibco) supplemented with epidermal growth factor and bovine pituitary extract. All cell lines were maintained in a 37 °C/5% CO2 humidified atmosphere.
(§2) Cell proliferation assay was performed as described previously. For cell growth experiment, cells were treated with the NRs for 7 days. MTT assay was performed at the end of the experiment. Calculations of combination indices were done using the Calcusyn program (Biosoft, Cambridge, United Kingdom). For colony formation assay, cells were plated 1000 per well in complete media and allowed to adhere for 24 h. The next day cells were treated with indicated compounds (5 μM). After 24 h compound containing media were removed, and cells were allowed to form colonies in complete media. Approximately 2 weeks later the colonies were fixed, stained with 0.5% crystal violet (sigma) for 30 min and counted manually. Results represent the mean ± standard deviation of three independent experiments.

[2] = tested on: MR49F cells; test: MTT growth inhibition in Enzalutamide resistant MR49F cells; assay type: cell-based, human; details: for GI50: Homo sapiens, MR49F
Procedure: Figure 2 Effect of NRs on PCa cell growth and colony formation (A) Representative photographs of colonies formed in PCa cells at 14th day after initial treatment with specified compounds (5 μmol/L). Colonies were fixed with methanol and stained with crystal violet. (B) Data represents the mean ± S.E from three independent experiments. *, P< 0.05; ♣, P<0.01 compared to vehicle treated control. […] NRs that had promising inhibitory effect on cell proliferation on LNCaP cells were tested for their growth inhibitory effect in MR49F cells in comparison with Casodex and Abiraterone acetate by MTT assay.
as §1, §2

[3] = tested on: 22Rv1 cells; test: MTT cell proliferation assay, 7 d, 22Rv1; assay type: cell-based; details: Homo sapiens, 22Rv1, 168 h, 7 d treatment
From the text: as §1, §2

[4] = tested on: PC-3 cells; test: MTT cell proliferation assay, 7 d, PC-3; assay type: cell-based; details: Homo sapiens, PC-3, 168 h, 7 d treatment
From the text: as §1, §2

[5] = tested on: C4-2B cells; test: MTT cell proliferation assay, 7 d, C4-2B; assay type: cell-based; details: Homo sapiens, 168 h, 7 d treatment
From the text: as §1, §2

[6] = tested on: LNCaP cells; test: MTT cell proliferation assay, 7 d, LNCaP; assay type: cell-based, human; details: Homo sapiens, LNCaP, 168 h, 7 d treatment
From the text: as §1, §2

[7] = tested on: PCa cells; test: MTT cell viability in PCa cells (LNCaP, PC-3, C4-2B, 22Rv1); assay type: cell-based, human; details: for growth inhibitory effect or differential sensitivity: PCa cells vs untransformed cells; for GI50: Homo sapiens, range over PCa cell lines
Procedure: as §2

[8] = tested on: Bax, cleaved PARP-1; test: Western blot of Bax and cleaved PARP-1 in PCa cells; assay type: cell-based, human; details: 20 μM, 24 h, among the lead NRs
Procedure: Figure 4 Effect of NRs on cell cycle and apoptosis (A) LNCaP cells treated with 5 μM of NRs and other compounds for 24 h were stained with PI and analysed with a FACS calibur flow cytometer. (B) Total cell lysates from PCa cells treated with 20 μM of NRs were separated by SDS-PAGE and probed with cyclin D1 and B antibodies. […] (C) LNCaP cells were treated with indicated compounds (5 μmol/L) for 24 h and apoptosis induction was examined by oligonucleosomal fragmentation. Data are shown relative to vehicle treated control and the bars are means of three replicate determinations plus standard deviations. *, P< 0.01; ♣, P<0.05 compared with vehicle treated control. (D) PCa cells as indicated were seeded in 24 well plate, and treated with 5 μmol/L of NRs the subsequent day. After 24 h the plates were analyzed for apoptotic and viable cells using acridine orange/ethidium bromide staining. (E) Western blot analysis of apoptosis associated Bax and cPARP in PCa cells treated with NRs (20 μmol/L) for 24 h. (F) Apoptosis induction in LNCaP cells treated with 5 μmol/L of VNLG-147 and -152 in the presence or absence of ZVAD (5 μmol/L) was assessed by oligonucleosomal fragmentation after 24 h incubation. *, P< 0.05 compared with vehicle treated control. […]

[9] = tested on: PC-3 cells; test: Wound healing migration assay; assay type: cell-based, human; details: 5 μM, 24 h
Procedure: Figure 5 Anti-migratory and anti-invasive potential of NRs (A) Effect of NRs treatment (5 μmol/L) on PC-3 cell migration was assessed by wound healing assay after 24 h of wound formation. Representative photomicrographs of initial and final wounds are shown at 100x magnification. (B) Effect of NRs on PC-3 cell invasion was evaluated by transwell migration assay. PC-3 cells were seeded on matrigel coated boyden chamber and treated with NRs (5 μmol/L, 24 h). Photographs represent the extent of cell invasion in each of the treated cells. (C) Western blot analysis of the effect of NRs on the expression of cadherins in PC-3 cells. Cells were treated with indicated compound 20 μmol/L for 24 h. […] For wound healing assay highly metastatic PC-3 cells were plated in a 24 well plate at a seeding density of 5 × 10^5 cells/ well and allowed to form a confluent monolayer for 24 h. Cells were made dormant by pretreating with 0.5 μmol/L mitomycin C for 2 h to ensure that wounds are filled due to cell migration and not by cell proliferation. Subsequently, the monolayer was scratched with a pipette tip, washed with media to remove floating cells, and photographed (time 0 h). Cells were then treated with indicated compounds (5 μM) and the experiment was terminated as soon as wound was completely filled in vehicle treated controls. Cells were then photographed again using Nikon TE2000 microscope at three randomly selected sites per well [43].

[10] = tested on: PC-3 cells; test: Boyden chamber matrigel invasion assay; assay type: cell-based, human; details: PC-3, 5 μM, 24 h
Procedure: Figure 5 Anti-migratory and anti-invasive potential of NRs (A) Effect of NRs treatment (5 μmol/L) on PC-3 cell migration was assessed by wound healing assay after 24 h of wound formation. Representative photomicrographs of initial and final wounds are shown at 100x magnification. (B) Effect of NRs on PC-3 cell invasion was evaluated by transwell migration assay. PC-3 cells were seeded on matrigel coated boyden chamber and treated with NRs (5 μmol/L, 24 h). Photographs represent the extent of cell invasion in each of the treated cells. (C) Western blot analysis of the effect of NRs on the expression of cadherins in PC-3 cells. Cells were treated with indicated compound 20 μmol/L for 24 h.
The invasion assay in PC-3 cells was performed using Matrigel (BD Biosciences, Bedford, MA, USA)-coated transwell cell culture chambers (8 μm pore size, EMD Millipore, Temecula, CA, USA) as described previously (43). Briefly, PC-3 cells (5 × 10^4 cells/well) were cultured in the upper chamber of the transwell insert for 24 h in serum-free RPMI-1640 medium. The cells were then treated with 5 μM of indicated compounds for 24 h. RPMI-1640 medium containing 10% FBS was placed in the lower chamber. At the end of incubation, the top surface of the non-migrated cells were scraped gently with cotton swabs and the cells on the lower surface of the membrane (migrated cells) were fixed for 15 min with cold methanol and stained with crystal violet. Cells that had migrated to the bottom of the membrane were visualized and counted using an inverted microscope. For each replicate (n = 3), cells in three randomly selected fields were counted and averaged.

[11] = DHT induced, read-out: GI50 LNCaP, DHT induced
[12] = read-out: GI50 MR49F (Figure 2C)

GI50 [3] [µM] | GI50 [4] [µM] | GI50 ([6]; read-out: GI50 LNCaP) [µM] | GI50 [6, 11] [µM] | GI50 [7] [µM] | SMILES | GI50 [1] [µM] | GI50 ([2]; read-out: GI50 MR49F) [µM] | GI50 [5] [µM] | growth inhibitory effect or differential sensitivity [7] | GI50 [2, 12] [µM] | effect on growth of MR49F cells ([2]; up to a concentration of 100 μmol/L) | efficacy in inducing PARP cleavage and/or increasing Bax expression [8] | PC-3 cell migration to the denuded zone [9] | percentage of cell invasion compared to control [10]
3.81 | 9.15 | 2.61 | 2.95 |  | CC(O)(CS(=O)(=O)c1ccc(F)cc1)C(=O)Nc1ccc(C#N)c(C(F)(F)F)c1 (centres unmarked) [Casodex, reference compound] | 69.1 | 43.6 | 1.51 |  |  |  |  |  | 
39.8 | 36.3 | 22.9 | 19.1 |  | CC1=C(/C=C/C(C)=C/C=C/C(C)=C/C(=O)Nc2ncnc3[nH]cnc23)C(C)(C)CCC1n1ccnc1 (centres unmarked) [VNLG-148] | 43.6 |  | 15.5 | did not display any notable growth inhibitory effect or differential sensitivity |  |  |  |  | 
 |  |  |  |  | CNC(=O)c1ccc(N2C(=S)N(c3ccc(C#N)c(C(F)(F)F)c3)C(=O)C2(C)C)cc1F [MDV3100, Enzalutamide, reference compound] | 17 |  | 1.54 |  | > 100 | no significant effect |  |  | 
2.04 | 2.95 | 1.86 | 1.41 | 1.5 to 5.5 | CC1=C(/C=C/C(C)=C/C=C/C(C)=C/C(=O)Nc2ccccc2O)C(C)(C)CCC1n1ccnc1 (centres unmarked) [VNLG-147] | 71.5 |  | 2.66 |  | 4.26 |  | greater efficacies | potentially suppressed | 33
2.97 | 7.62 | 2.45 | 2.69 |  | CC(=O)O[C@H]1CC[C@@]2(C)C(=CC[C@@H]3[C@@H]2CC[C@]2(C)C(c4cccnc4)=CC[C@@H]32)C1 [AA, Abiraterone acetate, reference compound] | 20.2 | 27.5 | 1.47 |  |  |  |  |  | 
25.1 | 36.3 | 47.9 | 39.8 |  | CC1=C(/C=C/C(C)=C/C=C/C(C)=C/C(=O)O)C(C)(C)CCC1 [ATRA, all-trans-retinoic acid, reference compound] | 75.3 |  | 11.7 |  |  |  |  |  | 
12.9 | 36.3 | 11.3 | 12.9 |  | CC1=C(/C=C/C(C)=C/C=C/C(C)=C/C(=O)O)C(C)(C)CCC1n1ccnc1 (centres unmarked) [VN/14-1] | 69.2 |  | 9.76 |  |  |  |  |  | 
3.23 | 3.54 | 2.69 | 2.45 |  | CC1=C(/C=C/C(C)=C/C=C/C(C)=C/C(=O)Nc2ccc(O)cc2)C(C)(C)CCC1 [Compound 4-HPR, 4-hydroxyphenyl retinamide, reference compound] | 1.07 |  | 3.11 |  |  |  |  |  | 
2.95 | 10.7 | 4.67 | 1.54 |  | CC1=C(/C=C/C(C)=C/C=C/C(C)=C/C(=O)Nc2ccc(O)cc2)C(C)(C)CCC1n1ccnc1 (centres unmarked) [VN/66-1] | 19.1 |  | 2.38 |  | 6.76 |  |  |  | 
39.8 | 57.5 | 57.5 | 52.5 |  | CC1=C(/C=C/C(C)=C/C=C/C(C)=C/C(=O)Nc2cc(C(F)(F)F)ccc2C(F)(F)F)C(C)(C)CCC1n1ccnc1 (centres unmarked) [VNLG-146] | 63.1 |  | 11.7 | did not display any notable growth inhibitory effect or differential sensitivity |  |  |  |  | 
2.23 | 4.36 | 3.23 | 2.69 | 1.5 to 5.5 | CC1=C(/C=C/C(C)=C/C=C/C(C)=C/C(=O)Nc2ccccc2)C(C)(C)CCC1n1ccnc1 (centres unmarked) [VNLG-153] | 39.8 |  | 2.97 |  | 7.41 |  |  | potentially suppressed | 35
2.23 | 4.26 | 2.45 | 2.23 | 1.5 to 5.5 | CC1=C(/C=C/C(C)=C/C=C/C(C)=C/C(=O)NC(C)(C)C)C(C)(C)CCC1n1ccnc1 (centres unmarked) [VNLG-145] | 25.1 |  | 2.14 |  | 3.89 |  |  |  | 
